Assay results published in patent US20030055084A1, “Pharmaceutical compounds and methods of use thereof” (Millennium Pharmaceutical, Inc., priority 2001, published 2003).

test system: Leukotriene B4 production in ionophore-stimulated human whole blood; test: Inhibition of leukotriene B4 production in ionophore-stimulated human whole blood; assay type: cell-based; details: calcium ionophore stimulated, LTB4 by EIA, read-out: HWB IC50
Experimental: Inhibition of Leukotriene B4 Production in lonophore-Stimulated Human Whole Blood
Human blood was drawn into heparinized blood collection tubes, and aliquoted in 1 ml portions into 1.5 ml microfuge tubes. Test compound ([…]) of varying concentrations, dissolved in DMSO, was added to the blood sample and incubated for 15 minutes at 37° C. Calcium ionophore ([…]) in DMSO was added to a final concentration of […], and the samples were incubated for 30 minutes at 37° C. Samples are then centrifuged at 1100×g (2500 rpm, H1000B rotor, in a Sorvall centrifuge) for 10 minutes at 4° C. Supernatant ([…]) was transferred into 1 1.5 ml microfuge tube, […] of cold methanol added, and proteins precipitated on ice for 30 minutes. The samples were centrifuged at 110×g for 10 minutes at 4° C., and the supernatant assayed for LTB4 using a commercially available EIA kit (Cayman Chemical) according to manufacturer's specifications. The following IC50 results (nM) were obtained for the specified compounds having the structures as indicated for the corresponding compound number.

Row | SMILES | IC50 [nM]
1 | C[C@@H](C#C[C@@H]1CC[C@@H](c2cc3ccccc3s2)O1)N(O)C(N)=O [Compound 3] | 197
2 | NC(=O)N(O)CCC#C[C@H]1CC[C@@H](c2cc3ccccc3s2)O1 [Compound 2B] | 878
3 | NC(=O)N(O)CCC#C[C@@H]1CC[C@@H](c2cc3ccccc3s2)O1 [Compound 2A] | 112

Other lines, results leading:

Row | IC50 [nM] | SMILES
4 | 388 | NC(=O)N(O)CCC#C[C@H]1CCC(c2cc3cc(F)ccc3o2)O1 (stereo partly drawn) [Compound 6B]
5 | 101 | NC(=O)N(O)CCC#C[C@@H]1CCC(c2cc3cc(F)ccc3o2)O1 (stereo partly drawn) [Compound 6A]
6 | 298 | NC(=O)N(O)CCC#C[C@@H]1CC[C@H](c2cc3cc(C(F)(F)F)ccc3o2)O1 [Compound 4B]
